Assay results from ChEMBL document CHEMBL6153135, “Rational Design of a Potent, Selective, and Metabolically Stable CDK9 Inhibitor to Counteract Osimertinib Resistance through Mcl-1 Suppression and Enhanced BRD4 Co-Targeting” (J Med Chem, 2025).
Active and inactive are the calls of the source. The rule behind the calls is not given here.

How the values were obtained:
[1] = biological target: Homeodomain-interacting protein kinase 4 (Homo sapiens) (UniProt Q8NE63); assay: Inhibition of HIPK4 (unknown origin) at 100 nM preincubated for 10 mins followed by substrate/ATP measured after 60 mins by ADP-Glo assay relative to control; settings: time 70.0 min
Chain of Homeodomain-interacting protein kinase 4 (Homo sapiens) (Q8NE63 whole entry): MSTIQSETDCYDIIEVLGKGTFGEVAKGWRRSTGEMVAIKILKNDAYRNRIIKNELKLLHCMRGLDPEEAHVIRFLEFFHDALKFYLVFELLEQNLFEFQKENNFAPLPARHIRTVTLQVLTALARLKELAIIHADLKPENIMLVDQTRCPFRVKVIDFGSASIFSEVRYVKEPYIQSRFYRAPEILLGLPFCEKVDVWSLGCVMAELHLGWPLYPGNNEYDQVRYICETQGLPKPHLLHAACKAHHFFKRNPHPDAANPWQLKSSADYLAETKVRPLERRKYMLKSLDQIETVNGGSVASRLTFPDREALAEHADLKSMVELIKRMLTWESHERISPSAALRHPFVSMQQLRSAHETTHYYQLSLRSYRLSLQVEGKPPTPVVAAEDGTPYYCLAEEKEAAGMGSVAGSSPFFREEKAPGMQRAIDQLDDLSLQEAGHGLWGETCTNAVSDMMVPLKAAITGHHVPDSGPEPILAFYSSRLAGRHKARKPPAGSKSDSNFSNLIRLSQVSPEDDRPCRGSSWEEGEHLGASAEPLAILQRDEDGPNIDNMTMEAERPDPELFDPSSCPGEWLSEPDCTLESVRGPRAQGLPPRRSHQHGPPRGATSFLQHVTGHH

[2] = biological target: Homeodomain-interacting protein kinase 2 (Homo sapiens) (UniProt Q9H2X6); assay: Inhibition of HIPK2 (unknown origin) at 100 nM preincubated for 10 mins followed by substrate/ATP measured after 60 mins by ADP-Glo assay relative to control; settings: time 70.0 min
Chain of Homeodomain-interacting protein kinase 2 (Homo sapiens) (Q9H2X6 whole entry, looked up): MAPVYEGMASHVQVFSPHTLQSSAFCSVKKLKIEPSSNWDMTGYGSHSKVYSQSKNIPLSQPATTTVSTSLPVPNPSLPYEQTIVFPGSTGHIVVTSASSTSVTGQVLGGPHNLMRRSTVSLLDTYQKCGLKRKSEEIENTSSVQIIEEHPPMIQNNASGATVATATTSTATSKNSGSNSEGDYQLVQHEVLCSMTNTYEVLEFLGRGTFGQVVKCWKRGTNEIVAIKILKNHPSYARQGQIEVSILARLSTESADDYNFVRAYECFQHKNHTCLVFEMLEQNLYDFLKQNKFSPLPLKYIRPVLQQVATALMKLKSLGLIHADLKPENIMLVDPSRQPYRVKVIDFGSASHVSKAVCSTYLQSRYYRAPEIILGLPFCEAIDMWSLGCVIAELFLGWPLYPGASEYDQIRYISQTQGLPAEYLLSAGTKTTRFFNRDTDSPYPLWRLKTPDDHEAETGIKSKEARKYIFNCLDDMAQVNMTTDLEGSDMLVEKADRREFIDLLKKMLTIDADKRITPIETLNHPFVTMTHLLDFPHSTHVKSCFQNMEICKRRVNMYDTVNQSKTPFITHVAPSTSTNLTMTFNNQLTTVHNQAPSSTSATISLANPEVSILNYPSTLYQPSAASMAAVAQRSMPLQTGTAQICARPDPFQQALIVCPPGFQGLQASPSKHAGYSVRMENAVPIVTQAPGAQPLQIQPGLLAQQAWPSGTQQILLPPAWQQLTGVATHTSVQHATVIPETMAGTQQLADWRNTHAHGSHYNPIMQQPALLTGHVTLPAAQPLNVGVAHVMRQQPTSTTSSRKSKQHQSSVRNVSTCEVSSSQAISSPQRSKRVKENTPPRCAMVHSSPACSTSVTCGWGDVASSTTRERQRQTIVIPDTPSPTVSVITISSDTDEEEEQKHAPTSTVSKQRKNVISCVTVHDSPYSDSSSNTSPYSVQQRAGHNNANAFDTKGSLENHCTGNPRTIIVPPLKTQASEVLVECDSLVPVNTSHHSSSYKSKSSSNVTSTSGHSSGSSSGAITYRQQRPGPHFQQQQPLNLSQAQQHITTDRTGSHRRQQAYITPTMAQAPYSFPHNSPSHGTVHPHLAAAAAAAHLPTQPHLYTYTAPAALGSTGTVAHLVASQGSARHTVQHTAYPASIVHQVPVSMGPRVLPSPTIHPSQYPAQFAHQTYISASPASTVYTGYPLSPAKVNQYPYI

[3] = biological target: Cyclin-dependent kinase 9 (Homo sapiens) (UniProt P50750); assay: Inhibition of CDK9 in human Osimertinib-resistant NCI-H1975 cells assessed as decrease in p-RNAPII-ser2 level incubated for 12 hrs by Western blot analysis; type: cell-based; settings: Osimertinib-resistant NCI-H1975 cell, dose 50-500 nM
Chain of Cyclin-dependent kinase 9 (Homo sapiens) (P50750 whole entry): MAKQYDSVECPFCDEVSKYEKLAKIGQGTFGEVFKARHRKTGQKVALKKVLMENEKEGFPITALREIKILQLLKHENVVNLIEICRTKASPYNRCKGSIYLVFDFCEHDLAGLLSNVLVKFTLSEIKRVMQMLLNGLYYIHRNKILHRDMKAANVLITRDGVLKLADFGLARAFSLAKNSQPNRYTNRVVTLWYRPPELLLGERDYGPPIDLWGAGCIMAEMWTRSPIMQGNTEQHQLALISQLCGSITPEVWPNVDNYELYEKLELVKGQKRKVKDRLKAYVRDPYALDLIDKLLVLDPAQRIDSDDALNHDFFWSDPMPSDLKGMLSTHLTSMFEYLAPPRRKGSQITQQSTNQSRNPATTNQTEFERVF

[4] = Half life in Sprague-Dawley rat at 20 mg/kg, po; type: ADME, organism-based; settings: in vivo
NCI-H1975 [5] = assay: Antitumor activity against human NCI-H1975 cells xenografted in BALB-c nude mouse assessed as tumor growth inhibition at 5 mg/kg, iv; type: functional, organism-based
[6] = test system: Osimertinib-resistant HCC827 cell; assay: Antitumor activity against human Osimertinib-resistant HCC827 cells xenografted in BALB-c nude mouse assessed as tumor growth inhibition at 5 mg/kg, iv; type: functional, organism-based
[7] = biological target: CDK6/cyclin D1 (Homo sapiens) (UniProt P24385+Q00534); assay: Inhibition of CDK6/Cyclin D1(unknown origin) at 100 nM preincubated for 10 mins followed by substrate/ATP measured after 60 mins by ADP-Glo assay relative to control; type: protein-complex assay; settings: time 70.0 min
[8] = Toxicity in BALB-c mouse xenografted with human NCI-H1975 cells assessed as decrease in body weight at 5 mg/kg, iv; type: organism-based; settings: in vivo
[9] = biological target: Cyclin-dependent kinase 9 (Homo sapiens) (UniProt P50750); assay: Inhibition of CDK9 in human Osimertinib-resistant NCI-H1975 cells assessed as decrease in Mcl-1 level incubated for 12 hrs by Western blot analysis; type: cell-based; settings: Osimertinib-resistant NCI-H1975 cell, dose 50-500 nM
[10] = test system: Osimertinib-resistant NCI-H1975 cell; assay: Induction of apoptosis in human Osimertinib-resistant NCI-H1975 cells assessed as late apoptotic cells at 2 uM incubated for 16 hrs by Annexin V-FITC/PI staining based flow cytometry (reference value: 1.42 %); type: functional
[11] = Toxicity in BALB-c nude mouse xenografted with human NCI-H1975 cells assessed as pathological damage in spleen at 15 mg/kg, iv administered on every two days by H and E staining based analysis; type: organism-based; settings: in vivo
[12] = test system: Lung adenocarcinoma organoid; assay: Anti-tumor activity against Osimertinib-resistant patient (#0085)-derived human Lung adenocarcinoma organoid assessed as inhibition of cell viability measured after 96 hrs; type: functional, tissue-based; settings: Neoplasm
NCI-H1299 = assay: Anti-proliferative activity against human NCI-H1299 cells assessed as cell inhibition measured after 72 hrs by MTT assay; type: functional, cell-based; settings: NCI-H1299, 72 h
[13] = biological target: Cyclin-dependent kinase 9 (Homo sapiens) (UniProt P50750); assay: Inhibition of CDK9 in human Osimertinib-resistant HCC827 cells assessed as decrease in Mcl-1 level at 100 to 500 nM incubated for 12 hrs by Western blot analysis; type: cell-based; settings: Osimertinib-resistant HCC827 cell, dose 100-500 nM
[14] = Metabolic stability in human liver S9 fraction assessed as half life measured for 5 to 60 mins by LC-MS/MS analysis; type: ADME, subcellular; settings: time 5-60 min
[15] = Drug concentration in plasma of BALB-c nude mouse xenografted with human NCI-H1975 cells at 15 mg/kg, iv measured after 30 mins by LC-MS/MS analysis; type: ADME, organism-based
Mus musculus = assay: In vivo downregulation of c-Myc level in tumor tissue of BALB-c nude mouse xenografted with human Osimertinib-resistant HCC827 cells at 5 mg/kg, iv in presence of JQ1 by Western blot analysis; type: functional, organism-based
CDK9/cyclin T1 = CDK9/cyclin T1 (Homo sapiens, UniProt P50750); assay: Inhibition of CDK9/cyclin T1 (unknown origin) preincubated for 10 mins followed by substrate/ATP measured after 60 mins by ADP-Glo assay; type: protein-complex assay
Chain of CDK9/cyclin T1 (O60563 whole entry): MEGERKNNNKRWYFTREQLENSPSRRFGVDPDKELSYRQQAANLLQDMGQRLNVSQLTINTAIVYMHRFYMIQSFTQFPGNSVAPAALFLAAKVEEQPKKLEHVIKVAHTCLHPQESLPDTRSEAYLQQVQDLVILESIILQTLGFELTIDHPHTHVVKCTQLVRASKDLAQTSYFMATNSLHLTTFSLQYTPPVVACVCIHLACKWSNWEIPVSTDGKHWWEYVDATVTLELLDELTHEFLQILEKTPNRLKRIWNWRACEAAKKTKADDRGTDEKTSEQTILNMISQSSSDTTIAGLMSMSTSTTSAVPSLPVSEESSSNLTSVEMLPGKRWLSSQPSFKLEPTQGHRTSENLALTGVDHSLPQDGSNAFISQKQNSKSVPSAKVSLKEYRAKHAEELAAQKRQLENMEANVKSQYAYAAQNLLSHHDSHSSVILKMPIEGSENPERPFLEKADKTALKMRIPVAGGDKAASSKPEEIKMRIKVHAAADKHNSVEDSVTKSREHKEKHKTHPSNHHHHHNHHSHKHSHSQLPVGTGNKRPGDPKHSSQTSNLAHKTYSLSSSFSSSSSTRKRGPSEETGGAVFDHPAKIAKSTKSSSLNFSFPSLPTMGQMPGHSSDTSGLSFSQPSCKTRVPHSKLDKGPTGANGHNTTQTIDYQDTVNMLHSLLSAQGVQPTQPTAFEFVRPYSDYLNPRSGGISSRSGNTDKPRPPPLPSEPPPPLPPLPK
Chain of CDK9/cyclin T1 (P50750 whole entry): as the sequence (P50750 whole entry) above

[16] = Toxicity in BALB-c mouse xenografted with human Osimertinib-resistant HCC827 cells assessed as decrease in body weight at 5 mg/kg, iv; type: organism-based; settings: in vivo
[17] = Cmax in Sprague-Dawley rat at 20 mg/kg, po; settings: in vivo
[18] = Toxicity in BALB-c mouse xenografted with human Osimertinib-resistant HCC827 cells assessed as decrease in body weight at 5 mg/kg, iv in presence of JQ1; type: organism-based; settings: in vivo
NCI-H1975 [19] = assay: Anti-proliferative activity against human NCI-H1975 cells assessed as cell inhibition measured after 72 hrs by MTT assay; type: functional, cell-based; settings: NCI-H1975, 72 h
[20] = Metabolic stability in monkey liver microsomes assessed as clearance measured for 5 to 60 mins by LC-MS/MS analysis; type: ADME, Macaca mulatta, Microsome; settings: rhesus monkey, time 5-60 min, read-out: CLH
PC-9 = assay: Anti-proliferative activity against human PC-9 cells assessed as cell inhibition measured after 72 hrs by MTT assay; type: functional, cell-based; settings: PC-9, 72 h
[21] = test system: Lung adenocarcinoma organoid; assay: Anti-tumor activity against Osimertinib-resistant patient (#0243)-derived human Lung adenocarcinoma organoid assessed as inhibition of cell viability measured after 96 hrs relative to control; type: functional, Neoplasm
[22] = AUC (0 to infinity) in Sprague-Dawley rat at 20 mg/kg, po; type: ADME, organism-based; settings: in vivo
NCI-H1975 [23] = assay: Antitumor activity against human NCI-H1975 cells xenografted in BALB-c nude mouse assessed as reduction in Ki-67 expression at 15 mg/kg, iv administered on every two days by IHC analysis; type: functional, organism-based
HCC827 = assay: Anti-proliferative activity against human HCC827 cells assessed as cell inhibition measured after 72 hrs by MTT assay; type: functional, cell-based; settings: HCC827, 72 h
[24] = test system: Osimertinib-resistant HCC827 cell; assay: Inhibition of Hippo signaling in human Osimertinib-resistant HCC827 cells in presence of JQ1 by KEGG analysis; type: cell-based
[25] = Drug concentration in lung of BALB-c nude mouse xenografted with human NCI-H1975 cells at 15 mg/kg, iv measured after 30 mins by LC-MS/MS analysis; type: ADME, organism-based; settings: read-out: Ct
[26] = Clearance in BALB/c mouse at 15 mg/kg, po; type: ADME, organism-based; settings: in vivo
NCI-H1975 [27] = assay: Antitumor activity against human NCI-H1975 cells xenografted in BALB-c nude mouse assessed as tumor growth inhibition at 5 mg/kg, iv in presence of JQ1 relative to control; type: functional; settings: read-out: TGI
[28] = test system: Lung adenocarcinoma organoid; assay: Anti-tumor activity against multidrug-resistant patient (#2663)-derived human Lung adenocarcinoma organoid assessed as inhibition of cell viability measured after 96 hrs; type: functional, tissue-based; settings: Neoplasm
[29] = Toxicity in BALB-c nude mouse xenografted with human NCI-H1975 cells assessed as pathological damage in kidney at 15 mg/kg, iv administered on every two days by H and E staining based analysis; type: organism-based; settings: in vivo
[30] = test system: Lung adenocarcinoma organoid; assay: Anti-tumor activity against Osimertinib-resistant patient (#0243)-derived human Lung adenocarcinoma organoid assessed as inhibition of cell viability measured after 96 hrs; type: functional, tissue-based; settings: Neoplasm
[31] = C0 in Sprague-Dawley rat at 2 mg/kg, iv; settings: in vivo
[32] = Apparent volume of distribution in Sprague-Dawley rat at 20 mg/kg, po; type: ADME, organism-based; settings: in vivo

## CC(=O)N1CCC(NC(=O)c2ccc3cc2OCCCCCCOc2cc(ccc2F)-c2nc(ncc2F)N3)CC1
[1]
  inhibition: 87.6%
[2]
  inhibition: 96%
[3]
  inhibition: Dose-dependent-effect
[4]
  half-life: 6.7 h
NCI-H1975 [5]
  inhibition: inactive
[6]
  inhibition: inactive
[7]
  inhibition: 33.1%
[8]
  Activity: Non-toxic
[9]
  inhibition: Dose-dependent-effect
[10]
  Activity: 22%
[11]
  Activity: Non-toxic
[12]
  IC50: 0.0447 µM
NCI-H1299
  IC50: 0.07 µM
[13]
  inhibition: Active
[14]
  half-life: 1.62 h
[15]
  concentration at 0.5 h: 2450 ng/mL
Mus musculus
  Activity: Active
CDK9/cyclin T1
  IC50: 0.0012 µM
[16]
  Activity: Non-toxic
[17]
  Cmax: 775.6 ng/mL
[18]
  Activity: Non-toxic
NCI-H1975 [19]
  IC50: 0.11 µM
[20]
  microsomal CLint: 23.5 µL/min/mg
PC-9
  IC50: 0.14 µM
[21]
  Imax: >98%
[22]
  AUC(0-inf): 5960 ng·h/mL
NCI-H1975 [23]
  Activity: Active
HCC827
  IC50: 0.15 µM
[24]
  inhibition: Active
[25]
  concentration at 0.5 h: 6650 ng/mL
[26]
  CL/F: 350 mL/min/kg
NCI-H1975 [27]
  inhibition in vivo at 5 mg/kg: 60%
[28]
  IC50: < 0.05 µM
[29]
  Activity: Non-toxic
[30]
  IC50: < 0.01 µM
[31]
  C0: 2527 ng/mL
[32]
  Vz: 30 L/kg
